Counter-ions that a name gives are not always drawn.

T1 sequence (P56726 33-793): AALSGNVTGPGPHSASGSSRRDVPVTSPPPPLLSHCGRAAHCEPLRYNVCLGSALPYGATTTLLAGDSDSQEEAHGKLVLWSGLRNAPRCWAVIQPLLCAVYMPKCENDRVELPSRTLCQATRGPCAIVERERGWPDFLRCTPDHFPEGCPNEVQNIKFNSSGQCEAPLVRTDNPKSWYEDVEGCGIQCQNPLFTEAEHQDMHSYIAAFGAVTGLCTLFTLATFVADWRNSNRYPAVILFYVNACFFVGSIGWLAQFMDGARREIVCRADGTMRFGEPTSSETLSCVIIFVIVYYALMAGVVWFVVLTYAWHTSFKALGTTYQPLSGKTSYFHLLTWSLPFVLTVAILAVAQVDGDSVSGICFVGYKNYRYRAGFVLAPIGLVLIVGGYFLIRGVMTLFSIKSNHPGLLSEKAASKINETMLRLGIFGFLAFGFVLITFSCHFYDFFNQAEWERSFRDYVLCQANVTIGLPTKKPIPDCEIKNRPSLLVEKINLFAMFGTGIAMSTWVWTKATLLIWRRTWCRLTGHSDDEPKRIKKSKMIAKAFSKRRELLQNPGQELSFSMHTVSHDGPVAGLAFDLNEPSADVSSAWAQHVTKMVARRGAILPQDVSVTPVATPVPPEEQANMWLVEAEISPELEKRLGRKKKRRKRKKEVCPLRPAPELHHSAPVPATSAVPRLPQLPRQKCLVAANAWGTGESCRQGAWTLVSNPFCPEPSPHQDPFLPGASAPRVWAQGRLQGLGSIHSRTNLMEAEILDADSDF

One assay addresses T1, SMO (Mus musculus, UniProt P56726).
T1 construct: endogenous in cells; host or cells: C3H10T1/2 (ATCC #CCL-226)
Nature of the assay: Smoothened (SMO)/Sonic Hedgehog (SHh) Transient Transcriptional Activation Assay (Gli-luciferase reporter in C3H10T1/2 cells). Type of assay: cell-based, murine. As to conditions: 2 uM test compound, SHh 250 ng/ml, 20 hrs. A digest of the protocol:
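C3H10T1/2 cells transiently transfected with a 10× murine Gli-responsive firefly luciferase reporter plus pEGFP, serum-starved 20 h in 0.5% calf serum, then treated with compounds (2 uM–2 nM final) and 250 ng/ml recombinant human SHh for 20 h at 37 °C. Read-out: Dual-Glo luminescence.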
Take “N-(3-(6-((2-Methoxyethylamino)methyl)-1-methyl-1H-benzo[d]imidazol-2-yl)cyclohexyl)-2,3-dihydrobenzo[b][1,4]dioxine-6-carboxamide and N-(3-(5-((2-methoxyethylamino)methyl)-1-methyl-1H-benzo[d]imidazol-2-yl)cyclohexyl)-2,3-dihydrobenzo[b][1,4]dioxine-6-carboxamide [Example 38]”: the “SMO % inhibition at 2 uM” value is 103%.
Consider “N-(3-(5-Bromo-1-methyl-1H-benzo[d]imidazol-2-yl)cyclohexyl)-3,5-dimethoxybenzamide and N-(3-(6-bromo-1-methyl-1H-benzo[d]imidazol-2-yl)cyclohexyl)-3,5-dimethoxybenzamide [Example 18]”, for which the “SMO % inhibition at 2 uM” value came to 107%.
The same measure, in the same setting: the figure for “N-(3-(6-(Cyanomethyl)-1-methyl-1H-benzo[d]imidazol-2-yl)cyclohexyl)-2,3-dihydrobenzo[b][1,4]dioxine-6-carboxamide and N-(3-(5-(Cyanomethyl)-1-methyl-1H-benzo[d]imidazol-2-yl)cyclohexyl)-2,3-dihydrobenzo[b][1,4]dioxine-6-carboxamide [Example 35]” is 106%.

The same assay, now with this note: C3H 10T1/2, 2 uM test compound, SHh 250 ng/ml, 20 hrs, read-out: SMO % inhibition at 2 uM.
Turning to `N#CCCn1c(C2CCCC(NC(=O)c3ccc4c(c3)OCCO4)C2)nc2ccccc21` (stereo not shown) [Example 15, N-(3-(1-(2-Cyanoethyl)-1H-benzo[d]imidazol-2-yl)cyclohexyl)-2,3-dihydrobenzo[b][1,4]dioxine-6-carboxamide], the inhibition at 2 µM is 94%.

The same assay, now with this note: C3H 10T1/2, 2 μM test compound, SHh 250 ng/ml, 20 hrs, read-out: SMO CELL % INHIBITION @ 2 μM.
With `O=C(N[C@@H]1CCC[C@H](c2nc3cc(C(F)(F)F)ccc3[nH]2)C1)c1ccc2c(c1)CCNC2` [Example 287, N-{(1R,3S)-3-[5-(trifluoromethyl)-1H-benzimidazol-2-yl]cyclohexyl}-1,2,3,4-tetrahydroisoquino-line-6-carboxamide HCl], the inhibition at 2 µM was found to be 107%.
As for `O=C(N[C@@H]1CCC[C@H](c2nc3ccccc3[nH]2)C1)c1ccc2oc(=O)[nH]c2c1` [Example 213, N-[(1R,3S)-3-(1H-benzimidazol-2-yl)cyclohexyl]-2-oxo-2,3-dihydro-1,3-benzoxazole-5-carboxamide triflouroacetate], the inhibition at 2 µM stood at 73%.
On the same count and under the same terms, the figure for `O=C1CCc2cc(C(=O)N[C@H]3CCC[C@H](c4nc5ccccc5[nH]4)C3)ccc2N1` [Example 247, N-(3-(1H-benzo[d]imidaz-ol-2-yl)cyclohexyl)-2-oxo-1,2,3,4-tetrahydroquino-line-6-carboxamide HCl] is 98%.
As to `Cn1c(C(=O)N[C@@H]2CCC[C@H](c3nc4ccccc4[nH]3)C2)nc2ccccc21` [Example 175, N-[(1R,3S)-3-(1H-benzimidazol-2-yl)cyclohexyl]-1-methyl-1H-benzimidazole-2-carboxamide HCl], the inhibition at 2 µM turned out to be 81%.
On to `CC(C)c1ccc(NC(=O)N[C@@H]2CCC[C@H](c3nc4ccccc4[nH]3)C2)cc1` [Example 236, 1-[(1R,3S)-3-(1H-benzimidazol-2-yl)cyclohexyl]-3-(4-isopropylphenyl) urea], for which the inhibition at 2 µM came to 108%.
`O=C(N[C@@H]1CCC[C@H](c2nc3ccccc3[nH]2)C1)c1c[nH]c2ccccc12` [Example 205, N-[(1R,3S)-3-(1H-benzimidazol-2-yl)cyclohexyl]-1H-indole-3-carboxamide triflouroacetate]: the inhibition at 2 µM came out at 54%.
Same read-out and setting: the figure for `O=C(NC12CCCC(c3nc4cc(C(F)(F)F)ccc4[nH]3)(C1)C2)c1ccc(C(=O)C(F)(F)F)cc1` [Example 274, 4-(trifluoroacetyl)-N-{5-[5-(trifluoromethyl)-1H-benzimidazol-2-yl]bicyclo[3.1.1]hept-1-yl}benzamide] is 105%; for `COc1ccc(C(=O)NC2CCCC(c3nc4ccccc4[nH]3)C2)cc1Cl` (stereo not shown) [Example 59, N-[3-(1H-benzimidazol-2-yl)cyclohexyl]-3-chloro-4-methoxybenz-amide HCl] it is 101%.
On the same count and under the same terms, the figure for `Cn1c([C@H]2CCC[C@@H](NC(=O)c3ccc4c(c3)CNCC4)C2)nc2ccccc21` [Example 310, N-[(1R,3S)-3-(1-methyl-1H-benzimidazol-2-yl)cyclohexyl]-1,2,3,4-tetrahydroiso-quinoline-7-carboxamide HCl] is 91.6%; for `O=C(N[C@@H]1CCC[C@H](c2nc3cc(C(F)(F)F)ccc3[nH]2)C1)c1n[nH]c2c1CCCC2` [Example 281, N-{(1R,3S)-3-[5-(trifluoromethyl)-1H-benzimidazol-2-yl]cyclohexyl]-4,5,6,7-tetrahydro-1H-indazol-3-carboxamide HCl] it is 98.5%.
The same measure, in the same setting: next, `O=C(N[C@@H]1CCC[C@H](c2nc3ccc(Cl)cc3[nH]2)C1)c1ccc2c(c1)OCCO2` [Example 178, N-[(1R,3S)-3-(6-chloro-1H-benzimidazol-2-yl)cyclohexyl]-2,3-dihydro-1,4-benzodioxine-6-carboxamide HCl]: 110%.
As for `Cc1nc2cc(C(=O)N[C@@H]3CCC[C@H](c4nc5ccccc5[nH]4)C3)ccc2s1` [Example 215, N-[(1R,3S)-3-(1H-benzimidazol-2-yl)cyclohexyl]-2-methyl-1,3-benzothiazole-5-carboxamide triflouroacetate], the inhibition at 2 µM turned out to be 46%.
Still for that read-out and setting: the figure for `O=C(NC1CCCC(c2nc3ccccc3[nH]2)C1)c1ccc(O)c(Cl)c1` (stereo not shown) [Example 147, N-[3-(1H-benzimidazol-2-yl)cyclohexyl]-3-chloro-4-hydroxybenz-amide triflouroacetate] is 68%.
Still for that read-out and setting: the figure for `O=C(N[C@H]1CCC[C@H](c2nc3ccccc3[nH]2)C1)c1cc(C2CC2)n[nH]1` [Example 246, N-(3-(1H-benzo[d]imidaz-ol-2-yl)cyclohexyl)-3-cyclopropyl-1H-pyrazole-5-carboxamide HCl] is 44%.
As for `O=C(NC1CCCC(c2nc3ccc(Br)cc3[nH]2)C1)c1ccc2c(c1)OCCO2` (stereo not shown) [Example 86, N-[3-(6-bromo-1H-benzimidazol-2-yl)cyclohexyl]-2,3-dihydro-1,4-benzodioxine-6-carboxamide HCl], the inhibition at 2 µM was determined as 102%.
The same measure, in the same setting: next, `O=C(N[C@H]1CCC[C@@H](c2nc3ccccc3[nH]2)C1)c1ccc2c(c1)OCCO2` [Example 72, N-((1S,3R)-3-(1H-benzo[d]imidazol-2-yl)cyclohexyl)-2,3-dihydrobenzo[b] [1,4]dioxine-6-carboxamide HCl]: 96%; `O=C(N[C@@H]1CCC[C@H](c2nc3cc(Cl)ccc3[nH]2)C1)c1ccc2c(c1)CN(CC1CC1)CC2` [Example 296, N-[(1R,3S)-3-(5-chloro-1H-benzimidazol-2-yl)cyclohexyl]-2-(cyclopropyl-methyl)-1,2,3,4-tetrahydroisoquino-line-7-carboxamide (+)-tartrate]: 106%; `O=C(N[C@@H]1CCC[C@@H](c2nc3ccccc3[nH]2)C1)c1ccc2c(c1)OCCO2` [Example 65, N-[(1R,3R)-3-(1H-benzimidazol-2-yl)cyclohexyl]-2,3-dihydro-1,4-benzodioxine-6-carboxamide HCl]: 96%.
Regarding `O=C(CNC(=O)c1ccccc1)NC1CCCC(c2nc3ccccc3[nH]2)C1` (stereo not shown) [Example 117, N-(2-{[3-(1H-benzimidazol-2-yl)cyclohexyl]amino}-2-oxoethyl)benz-amide triflouroacetate], the inhibition at 2 µM is 102%.
On the same count and under the same terms, next, `Cn1c(=O)[nH]c2cc(C(=O)N[C@@H]3CCC[C@H](c4nc5ccccc5[nH]4)C3)ccc21` [Example 217, N-[(1R,3S)-3-(1H-benzimidazol-2-yl)cyclohexyl]-1-methyl-2-oxo-2,3-dihydro-1H-benzimidazole-5-carboxamide triflouroacetate]: 85%.
Still for that read-out and setting: the figure for `O=C(NC12CCCC(c3nc4cc(C(F)(F)F)ccc4[nH]3)(C1)C2)c1c(F)c(F)c(F)c(F)c1F` [Example 288, 2,3,4,5,6-pentafluoro-N-{5-[5-(trifluoromethyl)-1H-benzimidazol-2-yl]bicyclo[3.1.1]hept-1-yl}benzamide] is 93.3%; for `CC(C)C1=NOC(C(=O)NC2CCCC(c3nc4ccccc4[nH]3)C2)C1` (stereo not shown) [Example 97, N-[3-(1H-benzimidazol-2-yl)cyclohexyl]-3-isopropyl-4,5-dihydroisoxazole-5-carboxamide triflouroacetate] it is 83%; for `O=C1CCc2cc(C(=O)NC3CCCC(c4nc5ccccc5[nH]4)C3)ccc2N1` (stereo not shown) [Example 137, N-[3-(1H-benzimidazol-2-yl)cyclohexyl]-2-oxo-1,2,3,4-tetrahydroquino-line-6-carboxamide triflouroacetate] it is 108%.
As for `O=C(N[C@@H]1CCC[C@H](c2nc3ccccc3[nH]2)C1)c1cc2ccc(F)cc2[nH]1` [Example 209, N-[(1R,3S)-3-(1H-benzimidazol-2-yl)cyclohexyl]-6-fluoro-1H-indole-2-carboxamide triflouroacetate], the inhibition at 2 µM is 32%.
Still for that read-out and setting: next, `CCc1ccc2nc(C(=O)N[C@@H]3CCC[C@H](c4nc5ccccc5[nH]4)C3)cn2c1` [Example 221, N-[(1R,3S)-3-(1H-benzimidazol-2-yl)cyclohexyl]-6-ethylimidazo[1,2-a]pyridine-2-carboxamide triflouroacetate]: 48%; `Cn1cc(CC(=O)NC2CCCC(c3nc4ccccc4[nH]3)C2)c2ccccc21` (stereo not shown) [Example 115, N-[3-(1H-benzimidazol-2-yl)cyclohexyl]-2-(1-methyl-1H-indol-3-yl)acetamide triflouroacetate]: 106%; `COc1cc(OC)cc(C(=O)N[C@@H]2CCCC(c3nc4cc(S(C)(=O)=O)ccc4[nH]3)C2)c1` (stereo in doubt) [Example 289, 3,5-dimethoxy-N-{(1R,3S)-3-[5-(methylsulfonyl)-1H-benzimidazol-2-yl]cyclohexyl} benzamide (+)-tartrate]: 81%.

Source of the values: patent publication US20100029615A1, “BENZIMIDAZOLE DERIVATIVES” (priority 2006, published 2010).
